Reference: the supplement of paper PMC13380429

Assays:
Settings in all cases: 72 h
Calu-3 [1] = test: cell viability relative to DMSO; higher = less toxic
U2OS [2] = test: as above
Caco-2 [3] = test: as above
HepG2 [4] = test: as above
Vero E6 [5] = test: as above
Calu-3 [6] = test: drug sensitivity score (DSS) for viability; higher = more toxic; extreme values may be limits of the assay
U2OS [7] = test: as above
Caco-2 [8] = test: as above
HepG2 [9] = test: as above
Vero E6 [10] = test: as above
Calu-3 [11] = test: relative viability EC50 (midpoint between 100% and the lowest measured viability); higher = less toxic
U2OS [12] = test: as above
Caco-2 [13] = test: as above
HepG2 [14] = test: as above
Vero E6 [15] = test: as above

SMILES	cell viability (Calu-3 [1]; 1 nM)	cell viability (Calu-3 [1]; 10 nM)	cell viability (Calu-3 [1]; 100 nM)	cell viability (Calu-3 [1]; 1000 nM)	cell viability (Calu-3 [1]; 10000 nM)	cell viability (U2OS [2]; 1 nM)	cell viability (U2OS [2]; 10 nM)	cell viability (U2OS [2]; 100 nM)	cell viability (U2OS [2]; 1000 nM)	cell viability (U2OS [2]; 10000 nM)	cell viability (Caco-2 [3]; 1 nM)	cell viability (Caco-2 [3]; 10 nM)	cell viability (Caco-2 [3]; 100 nM)	cell viability (Caco-2 [3]; 1000 nM)	cell viability (Caco-2 [3]; 10000 nM)	cell viability (HepG2 [4]; 1 nM)	cell viability (HepG2 [4]; 10 nM)	cell viability (HepG2 [4]; 100 nM)	cell viability (HepG2 [4]; 1000 nM)	cell viability (HepG2 [4]; 10000 nM)	cell viability (Vero E6 [5]; 1 nM)	cell viability (Vero E6 [5]; 10 nM)	cell viability (Vero E6 [5]; 100 nM)	cell viability (Vero E6 [5]; 1000 nM)	cell viability (Vero E6 [5]; 10000 nM)	drug sensitivity score (Calu-3 [6])	drug sensitivity score (U2OS [7])	drug sensitivity score (Caco-2 [8])	drug sensitivity score (HepG2 [9])	drug sensitivity score (Vero E6 [10])	relative viability EC50 (Calu-3 [11])	relative viability EC50 (U2OS [12])	relative viability EC50 (Caco-2 [13])	relative viability EC50 (HepG2 [14])	relative viability EC50 (Vero E6 [15])
Cc1cc(=O)oc2c(C=O)c(O)ccc12 [4-mu-8C]	102%	92.7%	118%	110%	97.9%	107%	101%	97.8%	100%	99%	98%	95.5%	101%	104%	87.1%	106%	106%	111%	87.4%	89.3%	97.6%	104%	102%	102%	100%	0	0	0	0.6	0	> 10 µM	> 10 µM	> 10 µM	> 10 µM	> 10 µM
C=CCN1CC[C@]23c4c5ccc(O)c4O[C@H]2/C(=N/NC(=O)c2ccccc2)CC[C@@]3(O)[C@H]1C5 [naloxone-benzoylhydrazone]	95.4%	95.8%	89.4%	103%	112%	100%	101%	97.4%	103%	105%	91.7%	93.8%	101%	94.7%	112%	101%	99.5%	102%	96.4%	101%	97.9%	102%	102%	97.2%	107%	0	0	0	0	0	> 10 µM	> 10 µM	> 10 µM	> 10 µM	> 10 µM
O=C1NCN(c2ccccc2)C12CCN(CC1COc3ccccc3O1)CC2 (stereo not given) [spiroxatrine]	98.3%	99%	92%	100%	104%	106%	98%	99.3%	94.8%	99%	95.2%	101%	101%	100%	98.2%	87.5%	94.3%	87.6%	104%	103%	103%	99.8%	104%	97.9%	109%	0	0	0	0	0	> 10 µM	> 10 µM	> 10 µM	> 10 µM	> 10 µM
CO/N=C(\C(=O)N[C@@H]1C(=O)N2C(C(=O)[O-])=C(C[N+]3(C)CCCC3)CS[C@H]12)c1csc(N)n1 [cefepime]	104%	105%	113%	92.8%	102%	99.2%	101%	96.6%	102%	99.4%	90.8%	96.8%	106%	102%	122%	102%	86%	121%	82.6%	102%	100%	101%	104%	107%	99.3%	0	0	0	0	0	> 10 µM	> 10 µM	> 10 µM	> 10 µM	> 10 µM
N[C@H]1C[C@@H]1c1ccc(-c2cccc(O)c2)cc1 [OG-L002]	108%	106%	99.3%	95.3%	108%	101%	94.3%	98.3%	97.8%	96.4%	104%	100%	102%	101%	105%	103%	97.6%	100%	115%	114%	96%	103%	95.9%	104%	107%	0	0	0	0	0	> 10 µM	> 10 µM	> 10 µM	> 10 µM	> 10 µM
NC(=O)c1cn(Cc2c(F)cccc2F)nn1 [rufinamide]	101%	97.7%	99.1%	101%	100%	99.6%	100%	101%	98%	104%	111%	97.4%	93.3%	97.1%	104%	109%	102%	94.1%	101%	97.4%	101%	101%	101%	97.9%	103%	0	0	0	0	0	> 10 µM	> 10 µM	> 10 µM	> 10 µM	> 10 µM
CCC1NC(=O)c2cc(S(N)(=O)=O)c(Cl)cc2N1 (stereo not given) [quinethazone]	101%	94.8%	97.5%	91.2%	95.1%	91.9%	100%	93.3%	101%	105%	94.3%	108%	96.4%	97.4%	82.9%	110%	103%	103%	92.6%	93.1%	106%	86.7%	103%	100%	98.6%	0	0	0.7	0	0	> 10 µM	> 10 µM	> 10 µM	> 10 µM	> 10 µM
CC(C)(C)c1nc(-c2cccc(NS(=O)(=O)c3c(F)cccc3F)c2F)c(-c2ccnc(N)n2)s1 [dabrafenib]	88%	93.8%	106%	99.3%	124%	102%	93.2%	107%	95.3%	102%	103%	97.1%	98.2%	77.8%	101%	96.4%	90.9%	78.3%	65.9%	30.4%	96.5%	104%	103%	79.8%	102%	0	0	0	9.8	0	> 10 µM	> 10 µM	> 10 µM	0.49 µM	> 10 µM
Cn1cnc(N)c2ncnc1-2 [3-methyladenine]	104%	101%	95.2%	106%	106%	103%	97.1%	98.3%	97.9%	99.8%	99.3%	94.8%	108%	102%	100%	103%	102%	89.6%	101%	90.5%	95.1%	103%	102%	96.6%	96.5%	0	0	0	0	0	> 10 µM	> 10 µM	> 10 µM	> 10 µM	> 10 µM
C[C@@H](Nc1cc(F)cc(F)c1)c1cc(C(=O)N(C)C)cc2c(=O)cc(N3CCOCC3)oc12 [AZD8186]	88.4%	100%	82.8%	76.4%	47.8%	96.2%	97.3%	96.8%	87.9%	76.9%	90.7%	78.2%	84.1%	75.3%	48%	101%	92.2%	96.5%	92%	75.7%	96.8%	95.6%	89.2%	78.9%	75%	6.4	1.7	8.8	1.5	3.8	0.6 µM	> 10 µM	0.2 µM	> 10 µM	> 10 µM
Fc1ccc(C(c2ccc(F)cc2)N2CCN(C/C=C/c3ccccc3)CC2)cc1 [flunarizine]	95.8%	98.9%	96.5%	95.8%	87.4%	96.1%	101%	97.7%	98.4%	88.8%	99.8%	102%	104%	103%	81.6%	106%	102%	106%	96.3%	82.8%	104%	103%	107%	102%	92.3%	0	0.1	0.3	0.8	0	> 10 µM	> 10 µM	> 10 µM	> 10 µM	> 10 µM
CC(=O)[C@@]1(O)CC[C@H]2[C@@H]3C[C@H](C)C4=CC(=O)C=C[C@]4(C)[C@@]3(F)[C@@H](O)C[C@@]21C [fluorometholone]	93.2%	98.3%	94.1%	92.5%	87.9%	96.4%	97.9%	91.1%	97%	92.3%	94.1%	96.2%	96.4%	99.7%	124%	96.3%	96.7%	101%	90.8%	96.9%	105%	101%	102%	97.5%	101%	0	0	0	0	0	> 10 µM	> 10 µM	> 10 µM	> 10 µM	> 10 µM
